Laboratory results from patent US20240109873A1, “ANTAGONISTS OF THE MUSCARINIC ACETYLCHOLINE RECEPTOR M4” (Vanderbilt University, priority 2020, published 2024).

Target: T1, human mAChR M4 (Homo sapiens, UniProt P08173)
T1 construct: expressed in transfected cells; host or cells: CHO-K1 (ATCC), co-transfected with chimeric G protein Gqi5
T1 sequence (P08173 1-479): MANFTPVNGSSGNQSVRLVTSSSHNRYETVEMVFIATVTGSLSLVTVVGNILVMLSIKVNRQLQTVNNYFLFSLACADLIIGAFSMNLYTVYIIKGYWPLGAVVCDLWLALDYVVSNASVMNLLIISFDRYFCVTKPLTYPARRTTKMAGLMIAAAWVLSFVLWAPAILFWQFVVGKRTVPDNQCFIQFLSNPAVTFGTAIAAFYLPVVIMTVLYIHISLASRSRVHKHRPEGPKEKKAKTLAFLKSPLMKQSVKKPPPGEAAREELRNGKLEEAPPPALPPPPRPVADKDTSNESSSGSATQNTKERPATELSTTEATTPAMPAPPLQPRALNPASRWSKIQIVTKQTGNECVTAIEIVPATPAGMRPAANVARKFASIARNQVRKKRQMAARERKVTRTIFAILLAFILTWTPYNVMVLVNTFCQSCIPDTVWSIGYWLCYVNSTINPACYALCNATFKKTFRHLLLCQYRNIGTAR
Assay: mAChR M4 cell-based functional assay (calcium flux, antagonism of EC80 acetylcholine response, M4/Gqi5/CHO-K1 cells)
Conditions: for remaining activity at 30 µM: CHO-K1, % ACh maximum at 30 μM, read-out: Human M4 Emin; for IC50: decrease of the response elicited by an EC80 concentration of acetylcholine, CHO-K1 cells, Gqi5; for Human M4 Emin: % ACh maximum at 30 μM
Experimental: Human or rat M4 cDNA, along with the chimeric G protein Gqi5, were transfected into Chinese hamster ovary (CHO-K1) cells purchased from the American Type Culture Collection using Lipofectamine2000. M4/Gqi5/CHO cells were grown in Ham's F-12 medium containing 10% heat-inactivated fetal bovine serum (FBS), 20 mM HEPES, 500 μg/mL G418 sulfate, and 200 μg/mL Hygromycin B.
For high throughput measurement of agonist-evoked increases in intracellular calcium, CHO-K1 cells stably expressing muscarinic receptors were plated in growth medium lacking G418 and hygromycin at 15,000 cells/20 μL/well in Greiner 384-well black-walled, tissue culture (TC)-treated, clear-bottom plates (VWR). Cells were incubated overnight at 37° C. and 5% CO2. The next day, cells were washed using an ELX 405 (BioTek) with assay buffer; the final volume was then aspirated to 20 μL. Next, 20 μL of a 2.3 μM stock of Fluo-4/acetoxymethyl ester (Invitrogen, Carlsbad, CA), prepared as a 2.3 mM stock in DMSO and mixed in a 1:1 ratio with 10% (w/v) Pluronic F-127 and diluted in assay buffer, was added to the wells and the cell plates were incubated for 50 min at 37° C. and 5% CO2. Dye was removed by washing with the ELX 405 and the final volume was aspirated to 20 μL. Compound master plates were formatted in a 10-point concentration-response curve (CRC) format (1:3 dilutions) in 100% DMSO with a starting concentration of 10 or 1 mM using a BRAVO liquid handler (Agilent). Test compound CRCs were then transferred to daughter plates (240 nL) using the Echo acoustic plate reformatter (Labcyte, Sunnyvale, CA) and then diluted into assay buffer (40 μL) to a 2× stock using a Thermo Fisher Combi (Thermo Fisher Scientific, Waltham, MA).
Calcium flux was measured using the Functional Drug Screening System (FDSS) 6000 or 7000 (Hamamatsu Corporation, Tokyo, Japan) as an increase in the fluorescent static ratio. Compounds were applied to cells (20 μL, 2×) using the automated system of the FDSS at 2 seconds into the protocol and the data were collected at 1 Hz. At 143 s, 10 μL of an EC20 concentration of the muscarinic receptor agonist acetylcholine was added (5×), followed by the addition of 12 μL of an EC80 concentration of acetylcholine at the 268 s time point (5×). Agonist activity was analyzed as a concentration-dependent increase in calcium mobilization upon compound addition. Positive allosteric modulator activity was analyzed as a concentration-dependent increase in the EC20 acetylcholine response. Antagonist activity was analyzed as a concentration-dependent decrease in the EC80 acetylcholine response; for the purposes of the tables herein, an IC50 (inhibitory concentration 50) was calculated as a concentration-dependent decrease of the response elicited by an EC80 concentration of acetylcholine. Concentration-response curves were generated using a four-parameter logistical equation in XLFit curve fitting software (IDBS, Bridgewater, NJ) for Excel (Microsoft, Redmond, WA) or Prism (GraphPad Software, Inc., San Diego, CA) or the Dotmatics software platform (Dotmatics, Bishop's Stortford, UK). […]
Compounds were synthesized as described above. Activity (IC50 and Emin) was determined in the mAChR M4 cell-based functional assay as described above and the data are shown in Table 2.

Compound	remaining activity at 30 µM [%]	IC50 [nM]	Human M4 Emin [%]
[2H]C([2H])(N1C[C@H]2C[C@H](Nc3ccc(-c4cnccc4C(F)(F)F)nn3)C[C@H]2C1)[C@]12CCC[C@H]1OCC2 (racemic) [Compound 29, (3aR,5s,6aS)-2-(((3aR,6aR)-hexahydro-3aH-cyclopenta[b]furan-3a-yl)methyl-d2)-N-(6-(4-(trifluoromethyl)pyridin-3-yl)pyridazin-3-yl)octahydrocyclopenta[c]pyrrol-5-amine and (3aR,5s,6aS)-2-(((3aS,6aS)-hexahydro-3aH-cyclopenta[b]furan-3a-yl)methyl-d2)-N-(6-(4-(trifluoromethyl)pyridin-3-yl)pyridazin-3-yl)octahydrocyclopenta[c]pyrrol-5-amine]	4	44	–
[2H]C([2H])(N1C[C@H]2C[C@H](Nc3ccc(-c4cnccc4C(F)(F)F)nn3)C[C@H]2C1)[C@@]12CCCCC[C@H]1OCC2 (racemic) [Compound 30, (3aR,5s,6aS)-2-(((3aS,8aR)-octabydro-3aH-cyclohepta[b]furan-3a-yl)methyl-d2)-N-(6-(4-(trifluoromethyl)pyridin-3-yl)pyridazin-3-yl)octahydrocyclopenta[c]pyrrol-5-amine and (3aR,5s,6aS)-2-(((3aR,8aS)-octahydro-3aH-cyclohepta[b]furan-3a-yl)methyl-d2)-N-(6-(4-(trifluoromethyl)pyridin-3-yl)pyridazin-3-yl)octahydrocyclopenta[c]pyrrol-5-amine]	31	4000	–
[2H]C([2H])(C1CCOC(C)(C)C1)N1C[C@H]2C[C@H](Nc3ccc(-c4cnccc4C(F)(F)F)nn3)C[C@H]2C1 (single isomer, unassigned) [Compound 58]	–	9.4	3
[2H]C([2H])(C1CCOCC1(C)C)N1C[C@H]2C[C@H](Nc3ccc(-c4cnccc4C(F)(F)F)nn3)C[C@H]2C1 (stereo partly drawn) [Compound 3, (3aR,5s,6aS)-2-((3,3-dimethyltetrahydro-2H-pyran-4-yl)methyl-d2)-N-(6-(4-(trifluoromethyl)pyridin-3-yl)pyridazin-3-yl)octahydrocyclopenta[c]pyrrol-5-amine]	2	4.6	–
[2H]C([2H])(N1C[C@H]2C[C@H](Nc3ccc(-c4cnccc4C(F)(F)F)nn3)C[C@H]2C1)C1(C)CCOCC1 [Compound 4, (3aR,5s,6aS)-2-((4-methyltetrahydro-2H-pyran-4-yl)methyl-d2)-N-(6-(4-(trifluoromethyl)pyridin-3-yl)pyridazin-3-yl)octahydrocyclopenta[c]pyrrol-5-amine]	2	15	–
[2H]C([2H])([C@@H]1COCCO1)N1C[C@H]2C[C@H](Nc3ccc(-c4cnccc4C(F)(F)F)nn3)C[C@H]2C1 [Compound 6, (3aR,5s,6aS)-2-(((R)-1,4-dioxan-2-yl)methyl-d2)-N-(6-(4-(trifluoromethyl)pyridin-3-yl)pyridazin-3-yl)octahydrocyclopenta[c]pyrrol-5-amine]	3	33	–

Molecules with a lower IC50, results first:

remaining activity at 30 µM [%]	IC50 [nM]	Human M4 Emin [%]	Compound
3	3.2	–	[2H]C1([2H])CC(C([2H])([2H])N2C[C@H]3C[C@H](Nc4ccc(-c5cnccc5C(F)(F)F)nn4)C[C@@]3(C)C2)CC([2H])([2H])O1 (racemic) [Compound 27, (3aR,5S,6aS)-3a-methyl-2-((tetrahydro-2H-pyran-4-yl-2,2,6,6-d4)methyl-d2)-N-(6-(4-(trifluoromethyl)pyridin-3-yl)pyridazin-3-yl)octahydrocyclopenta[c]pyrrol-5-amine and (3aS,5R,6aR)-3a-methyl-2-((tetrahydro-2H-pyran-4-yl-2,2,6,6-d4)methyl-d2)-N-(6-(4-(trifluoromethyl)pyridin-3-yl)pyridazin-3-yl)octahydrocyclopenta[c]pyrrol-5-amine]
2	1.9	–	[2H]C([2H])(C1CCOCC1)N1C[C@@H]2C[C@@H](Nc3ccc(-c4cccnc4C(F)(F)F)nn3)C[C@]2(C)C1 (racemic) [Compound 56, (3aR,5S,6aS)-3a-methyl-2-((tetrahydro-2H-pyran-4-yl)methyl-d2)-N-(6-(2-(trifluoromethyl)pyridin-3-yl)pyridazin-3-yl)octahydrocyclopenta[c]pyrrol-5-amine and (3aS,5R,6aR)-3a-methyl-2-((tetrahydro-2H-pyran-4-yl)methyl-d2)-N-(6-(2-(trifluoromethyl)pyridin-3-yl)pyridazin-3-yl)octahydrocyclopenta[c]pyrrol-5-amine]
3	1.5	–	[2H]C1([2H])CC(C([2H])([2H])N2C[C@H]3C[C@H](Nc4ccc(-c5cccnc5C(F)(F)F)nn4)C[C@@]3(C)C2)CC([2H])([2H])O1 (racemic) [Compound 57, (3aR,5S,6aS)-3a-methyl-2-((tetrahydro-2H-pyran-4-yl-2,2,6,6-d4)methyl-d2)-N-(6-(2-(trifluoromethyl)pyridin-3-yl)pyridazin-3-yl)octahydrocyclopenta[c]pyrrol-5-amine and (3aS,5R,6aR)-3a-methyl-2-((tetrahydro-2H-pyran-4-yl-2,2,6,6-d4)methyl-d2)-N-(6-(2-(trifluoromethyl)pyridin-3-yl)pyridazin-3-yl)octahydrocyclopenta[c]pyrrol-5-amine]
–	1	3	[2H]C([2H])(C1CCOC(C)(C)C1)N1C[C@H]2C[C@H](Nc3ccc(-c4cnccc4C(F)(F)F)nn3)C[C@H]2C1 (single isomer, unassigned) [Compound 59]
2	0.91	–	[2H]C([2H])([C@H]1COCCO1)N1C[C@H]2C[C@H](Nc3ccc(-c4cnccc4C(F)(F)F)nn3)C[C@H]2C1 [Compound 5, (3aR,5s,6aS)-2-(((S)-1,4-dioxan-2-yl)methyl-d2)-N-(6-(4-(trifluoromethyl)pyridin-3-yl)pyridazin-3-yl)octahydrocyclopenta[c]pyrrol-5-amine]
3	0.41	–	[2H]C([2H])(C1CCOCC1)N1C[C@H]2C[C@H](Nc3ccc(-c4cnccc4C(F)(F)F)nn3)C[C@H]2C1 [Compound 2, (3aR,5s,6aS)-2-((tetrahydro-2H-pyran-4-yl)methyl-d2)-N-(6-(4-(trifluoromethyl)pyridin-3-yl)pyridazin-3-yl)octahydrocyclopenta[c]pyrrol-5-amine]
4	0.28	–	FC(F)(F)c1ccncc1-c1ccc(N[C@H]2C[C@@H]3CN(CC4CCOCC4)C[C@@H]3C2)nn1 [Compound 1, (3aR,5s,6aS)-2-((tetrahydro-2H-pyran-4-yl)methyl)-N-(6-(4-(trifluoromethyl)pyridin-3-yl)pyridazin-3-yl)octahydrocyclopenta[c]pyrrol-5-amine]
